US10370371B2, “Substituted pyrimidine Bmi-1 inhibitors” (PTC Therapeutics, Inc., priority 2013, dated 2019)

System: Bmi-1 protein
Assay: Sandwich ELISA Assay (Bmi-1 protein level in HT-1080 cells)
Assay type: cell-based
Experimental: Cell Seeding and Compound Treatment (Day 1):
HT-1080 cells were seeded at 8000 cells/well (50 μL) in 96-well tissue culture plates. After the cells became adherent (3-4 hours), 2× diluted stocks of test compounds in 50 μL DMEM containing 1% DMSO (final DMSO concentration was 0.5%) were added and the plates were incubated at 37° C. under 5% CO2 for 40-48 hours.
ELISA Plate First Antibody Preparation (Day 2):
The First Antibody (Millipore Mouse, monoclonal to mouse Bmi-1, clone F6, catalog #05-637) diluted to 2 μg/mL in PBS was added (100 μL) to each well of a Nunc MaxiSorp 96-well ELISA plate. The plate was covered with a plate seal and allowed to stand overnight.
Cell Lysate Preparation (Day 3):
Fresh Lysis buffer (1×) was prepared on the day of the assay as follows: 1 mM EDTA, 150 mM NaCl, 0.5% Triton-X 100, 10 mM NaF, 20 mM B-Glycerophosphate, 1 mM DTT (in PBS, pH 7.2-7.4) and HALT protease inhibitor cocktail (1×) (Pierce #78410).
Lysis Buffer (1×, 40 μL) was added to each well and the plate was shaken for 5-10 minutes on an orbital shaker to allow cell lysis, then diluent (1% BSA in PBS in 0.5% NP40) (100 μL) was added to each well.
A standard curve was prepared at the following Bmi-1 concentrations: 8000, 4000, 2000, 1000, 500, 250, 125 and 0 pg/mL. The Bmi-1 Recombinant Protein Standard (Novus Biologicals PCGF4 Recombinant Protein (P01), catalog # H00000648-P01) used to prepare the standard curve was stored at −80° C. On first thaw, the Recombinant Protein Standard was diluted to 10 μg/μL in Blocking Buffer (1% BSA in PBS; BSA: Fisher Scientific Catalog #1600-100). Aliquots were taken and refrozen at −80° C. The aliquots may be kept at 4° C. and reused after first thaw, but only within 1-2 weeks. The Recombinant Protein Standard contains a GST-fusion tag that appears at approximately 70 Kda on Western Blot.
The prepared ELISA plate was washed 3× with Wash Buffer (0.05% Tween-20 in PBS). The final wash was removed from the plate and the plate was blotted dry. Blocking Buffer (300 μL) (1% BSA in PBS) was added to each well. The plate was covered with a plate seal and incubated at room temperature for 1 hour. The blocked plate was washed 3× with Wash Buffer, then the final wash was removed and the plate was blotted dry. The previously prepared samples and standards were added (100 μL/well) and the plate was covered with a plate seal and incubated at 4° C. overnight.
The prepared ELISA plate was removed from incubation and allowed to stand at room temperature for 30 minutes, then washed and blotted dry. The Second Antibody (Cell Signaling Rabbit anti-Bmi-1, Cat#2830) diluted to 1:600 in Blocking Buffer was added (100 μL) to each well, except as needed for background control wells. The plate was covered with a plate seal and incubated for 1.5 hrs at room temperature.
The ELISA plate was washed and blotted dry as previously described. The Third Antibody (Cell Signaling HRP conjugated anti-rabbit IgG (CellSignaling, Cat#:7074) diluted to 1:300 in Blocking Buffer was added (100 μL) to each well, except as needed for background control wells. The plate was incubated for 1 hr at room temperature.
The plate was washed and blotted dry, then a previously prepared TMB substrate (TMB substrate kit, Pierce catalog #34021) (prepared by mixing kit reagents 1:1) (100 μL) was added per well. The plate was incubated for 20-30 minutes at room temperature in the dark, then Stop Solution (2 M sulfuric acid in water) (50 μL) was added per well. The plates were read at OD450 (experimental) and OD570 (reference).

Row | SMILES | EC50 [nM]
1 | Cc1nc2ccccc2n1-c1cc(Cl)nc(Nc2ccc(C(F)(F)F)nc2)n1 [Cpd 36, 4-chloro-6-(2-methyl-1H-benzimidazol-1-yl)-N-[6-(trifluoromethyl)pyridin-3-yl]pyrimidin-2-amine] | 100 to 3000
2 | Cc1nc2ccc(F)cc2n1-c1cc(Cl)nc(Nc2ccc(C(F)(F)F)nc2)n1 [Cpd 38, 4-chloro-6-(6-fluoro-2-methyl-1H-benzimidazol-1-yl)-N-[6-(trifluoromethyl)pyridin-3-yl]pyrimidin-2-amine] | 100 to 3000
3 | Cc1nc2ccc(Cl)cc2n1-c1cc(O)nc(Nc2ccc(C(F)(F)F)cc2)n1 [Cpd 46, 6-(6-chloro-2-methyl-1H-benzimidazol-1-yl)-2-{[4-(trifluoromethyl)phenyl]amino}pyrimidin-4-ol] | 100 to 3000
4 | Cc1nc2cc(Cl)ccc2n1-c1cc(N)nc(Nc2ccc(C(F)(F)F)cc2)n1 [Cpd 47, 6-(5-chloro-2-methyl-1H-benzimidazol-1-yl)-N^2-[4-(trifluoromethyl)phenyl]pyrimidine-2,4-diamine] | 100 to 3000
5 | Cc1nc2ncc(F)cn2c1-c1cc(N)nc(Nc2ccc(C(F)(F)F)cc2)n1 [Cpd 48, 6-(6-fluoro-2-methylimidazo[1,2-a]pyrimidin-3-yl)-N^2-[4-(trifluoromethyl)phenyl]pyrimidine-2,4-diamine] | 10 to 100
6 | Cc1nc2cc(F)cc(F)c2n1-c1cc(N)nc(Nc2ccc(OC(F)F)cc2)n1 [Cpd 49, N^2-[4-(difluoromethoxy)phenyl]-6-(5,7-difluoro-2-methyl-1H-benzimidazol-1-yl)pyrimidine-2,4-diamine] | 100 to 3000

Continued, values first:

Row | EC50 [nM] | SMILES
7 | 10 to 100 | Cc1nc2c(F)cccc2n1-c1cc(N)nc(Nc2ccc(C(F)(F)F)cc2)n1 [Cpd 35, 6-(4-fluoro-2-methyl-1H-benzimidazol-1-yl)-N^2-[4-(trifluoromethyl)phenyl]pyrimidine-2,4-diamine]
8 | 10 to 100 | Cc1nc2ccccc2n1-c1cc(N)nc(Nc2ccc(C(F)(F)F)nc2)n1 [Cpd 37, 6-(2-methyl-1H-benzimidazol-1-yl)-N^2-[6-(trifluoromethyl)pyridin-3-yl]pyrimidine-2,4-diamine]
9 | 10 to 100 | Cc1nc2cc(F)ccc2n1-c1cc(N)nc(Nc2ccc(C(F)(F)F)nc2)n1 [Cpd 39, 6-(5-fluoro-2-methyl-1H-benzimidazol-1-yl)-N^2-[6-(trifluoromethyl)pyridin-3-yl]pyrimidine-2,4-diamine]
10 | 10 to 100 | Cc1nc2ccc(F)cc2n1-c1cc(N)nc(Nc2ccc(C(F)(F)F)nc2)n1 [Cpd 40, 6-(6-fluoro-2-methyl-1H-benzimidazol-1-yl)-N^2-[6-(trifluoromethyl)pyridin-3-yl]pyrimidine-2,4-diamine]
11 | 10 to 100 | Cc1nc2ccc(Br)cc2n1-c1cc(N)nc(Nc2ccc(C(F)(F)F)cc2)n1 [Cpd 41, 6-(6-bromo-2-methyl-1H-benzimidazol-1-yl)-N^2-[4-(trifluoromethyl)phenyl]pyrimidine-2,4-diamine]
12 | 10 to 100 | Cc1ccc2nc(C)n(-c3cc(N)nc(Nc4ccc(C(F)(F)F)cc4)n3)c2c1 [Cpd 42, 6-(2,6-dimethyl-1H-benzimidazol-1-yl)-N^2-[4-(trifluoromethyl)phenyl]pyrimidine-2,4-diamine]
13 | 10 to 100 | CCc1nc2cc(F)ccc2n1-c1cc(N)nc(Nc2ccc(C(F)(F)F)nc2)n1 [Cpd 43, 6-(2-ethyl-5-fluoro-1-benzimidazol-1-yl)-N^2-[6-(trifluoromethyl)pyridin-3-yl]pyrimidine-2,4-diamine]
14 | 10 to 100 | CCc1nc2ccc(F)cc2n1-c1cc(N)nc(Nc2ccc(C(F)(F)F)nc2)n1 [Cpd 44, 6-(2-ethyl-6-fluoro-1H-benzimidazol-1-yl)-N^2-[6-(trifluoromethyl)pyridin-3-yl]pyrimidine-2,4-diamine]
15 | 10 to 100 | Cc1nc2ccc(Cl)cc2n1-c1cc(N)nc(Nc2ccc(C(F)(F)F)cc2)n1 [Cpd 45, 6-(6-chloro-2-methyl-1H-benzimidazol-1-yl)-N^2-[4-(trifluoromethyl)phenyl]pyrimidine-2,4-diamine]
